Laboratory results from PubChem BioAssay AID2060510 (Molecular Pharmacology Branch, DTP, NCI, 2025).

Test system: 439559-082-T-J2-PDC spheroids viability
Assay: Anticancer human tumor 439559-082-T-J2-PDC patient-derived colon adenocarcinoma cell line growth inhibition [GQUAD]
Settings: for IC50: curve of first compound; for viability, T/C: stronger effect = lower value
In short: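 Viability of tumor cells grown as complex spheroids with endothelial and stromal cells, exposed to drug combinations. Top concentration at or near clinical Cmax (else 10 microM), diluted in half-log increments.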

[1] = second compound 0.0316 µM, first compound 0.0316 µM
[2] = second compound 0.0316 µM, first compound 0.1 µM
[3] = second compound 0.0316 µM, first compound 0.316 µM
[4] = second compound 0.0316 µM, first compound 1 µM
[5] = second compound 0.0316 µM, first compound 3.16 µM
[6] = second compound 0.0316 µM, first compound 10 µM
[7] = second compound 0.1 µM, first compound 0.0316 µM
[8] = second compound 0.1 µM, first compound 0.1 µM
[9] = second compound 0.1 µM, first compound 0.316 µM
[10] = second compound 0.1 µM, first compound 1 µM
[11] = second compound 0.1 µM, first compound 3.16 µM
[12] = second compound 0.1 µM, first compound 10 µM
[13] = second compound 0.316 µM, first compound 0.0316 µM
[14] = second compound 0.316 µM, first compound 0.1 µM
[15] = second compound 0.316 µM, first compound 0.316 µM
[16] = second compound 0.316 µM, first compound 1 µM
[17] = second compound 0.316 µM, first compound 3.16 µM
[18] = second compound 0.316 µM, first compound 10 µM
[19] = second compound 1 µM, first compound 0.0316 µM
[20] = second compound 1 µM, first compound 0.1 µM
[21] = second compound 1 µM, first compound 0.316 µM
[22] = second compound 1 µM, first compound 1 µM
[23] = second compound 1 µM, first compound 3.16 µM
[24] = second compound 1 µM, first compound 10 µM
[25] = second compound 3.16 µM, first compound 0.0316 µM
[26] = second compound 3.16 µM, first compound 0.1 µM
[27] = second compound 3.16 µM, first compound 0.316 µM
[28] = second compound 3.16 µM, first compound 1 µM
[29] = second compound 3.16 µM, first compound 3.16 µM
[30] = second compound 3.16 µM, first compound 10 µM
[31] = second compound 10 µM, first compound 0.0316 µM
[32] = second compound 10 µM, first compound 0.1 µM
[33] = second compound 10 µM, first compound 0.316 µM
[34] = second compound 10 µM, first compound 1 µM
[35] = second compound 10 µM, first compound 3.16 µM
[36] = second compound 10 µM, first compound 10 µM
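Also: spheroids exposed to the agents for 7 days before readout.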
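For viability, T/C in this document: percent of luminescence signal in DMSO vehicle wells taken as 100% viability.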

With `C#Cc1c(F)ccc2cc(O)cc(-c3ncc4c(N5CC6CCC(C5)N6)nc(OCC56CCCN5CC(F)C6)nc4c3F)c12` (stereo not drawn) + CN(C)c1ccc(Nc2c3ccc(NC(=O)CCN4CCCC4)cc3nc3cc(NC(=O)CCN4CCCC4)ccc23)cc1 the IC50 (second compound 0.0316 µM) was over 10 µM, the IC50 (second compound 0.1 µM) was 3.88 µM and the IC50 (second compound 0.316 µM) was 6.88 µM. For the same compound, the IC50 (second compound 1 µM) was over 10 µM, the IC50 (second compound 3.16 µM) was 3.74 µM and the IC50 (second compound 10 µM) was 3.18 µM. The viability, T/C [1] was 83.6%, the viability, T/C [2] was 70.7% and the viability, T/C [3] was 66%. For the same compound, the viability, T/C [4] was 60.1%, the viability, T/C [5] was 56.1% and the viability, T/C [6] was 49.1%. It also gave a viability, T/C [7] of 94%, a viability, T/C [8] of 68.5% and a viability, T/C [9] of 73.1%. The viability, T/C [10] was 58.1%, the viability, T/C [11] was 54% and the viability, T/C [12] was 42.6%. It also gave a viability, T/C [13] of 79.3%, a viability, T/C [14] of 82.8% and a viability, T/C [15] of 62.2%. It also gave a viability, T/C [16] of 62%, a viability, T/C [17] of 55.5% and a viability, T/C [18] of 47.6%. The viability, T/C [19] was 91.5%, the viability, T/C [20] was 73.2% and the viability, T/C [21] was 64.6%. The viability, T/C [22] was 55.4%, the viability, T/C [23] was 61.8% and the viability, T/C [24] was 48.5%. The viability, T/C [25] was 81.9%, the viability, T/C [26] was 75.3% and the viability, T/C [27] was 69.1%. It also gave a viability, T/C [28] of 52.4%, a viability, T/C [29] of 55.2% and a viability, T/C [30] of 43.4%. It also gave a viability, T/C [31] of 84.4%, a viability, T/C [32] of 77.7% and a viability, T/C [33] of 62.5%. It also gave a viability, T/C [34] of 54.7%, a viability, T/C [35] of 56.4% and a viability, T/C [36] of 40.7%.
`CC(=O)O[C@H]1C(=O)[C@@]2(C)[C@H]([C@H](OC(=O)c3ccccc3)[C@]3(O)C[C@H](OC(=O)[C@H](O)[C@@H](NC(=O)c4ccccc4)c4ccccc4)C(C)=C1C3(C)C)[C@]1(OC(C)=O)CO[C@@H]1C[C@@H]2O` + CN(C)c1ccc(Nc2c3ccc(NC(=O)CCN4CCCC4)cc3nc3cc(NC(=O)CCN4CCCC4)ccc23)cc1 showed an IC50 (second compound 0.0316 µM) of 2.03 µM, an IC50 (second compound 0.1 µM) of 1.83 µM and an IC50 (second compound 0.316 µM) of 2.04 µM. The IC50 (second compound 1 µM) was 1.79 µM, the IC50 (second compound 3.16 µM) was 2.18 µM and the IC50 (second compound 10 µM) was 1.36 µM. The viability, T/C [1] was 84.8%, the viability, T/C [2] was 77.7% and the viability, T/C [3] was 74.5%. It also gave a viability, T/C [4] of 62.8%, a viability, T/C [5] of 41.7% and a viability, T/C [6] of 29.9%. It also gave a viability, T/C [7] of 85.1%, a viability, T/C [8] of 83.7% and a viability, T/C [9] of 74.2%. For the same compound, the viability, T/C [10] was 60.9%, the viability, T/C [11] was 40.3% and the viability, T/C [12] was 31.6%. For the same compound, the viability, T/C [13] was 84%, the viability, T/C [14] was 82.3% and the viability, T/C [15] was 69.7%. The viability, T/C [16] was 60.4%, the viability, T/C [17] was 44% and the viability, T/C [18] was 30.7%. It also gave a viability, T/C [19] of 76.2%, a viability, T/C [20] of 82.9% and a viability, T/C [21] of 70%. For the same compound, the viability, T/C [22] was 64%, the viability, T/C [23] was 36.9% and the viability, T/C [24] was 28.9%. It also gave a viability, T/C [25] of 82.1%, a viability, T/C [26] of 84.6% and a viability, T/C [27] of 78.9%. The viability, T/C [28] was 65.8%, the viability, T/C [29] was 42.5% and the viability, T/C [30] was 26.7%. The viability, T/C [31] was 73.5%, the viability, T/C [32] was 73.9% and the viability, T/C [33] was 86.2%. The viability, T/C [34] was 56.6%, the viability, T/C [35] was 36.7% and the viability, T/C [36] was 27%.
`CCCS(=O)(=O)Nc1ccc(F)c(C(=O)c2c[nH]c3ncc(-c4ccc(Cl)cc4)cc23)c1F` + CN(C)c1ccc(Nc2c3ccc(NC(=O)CCN4CCCC4)cc3nc3cc(NC(=O)CCN4CCCC4)ccc23)cc1 was tested, and the IC50 (second compound 0.0316 µM) was over 10 µM, the IC50 (second compound 0.1 µM) was over 10 µM and the IC50 (second compound 0.316 µM) was 9.61 µM. The IC50 (second compound 1 µM) was over 10 µM, the IC50 (second compound 3.16 µM) was 9.15 µM and the IC50 (second compound 10 µM) was over 10 µM. It also gave a viability, T/C [1] of 118%, a viability, T/C [2] of 93.8% and a viability, T/C [3] of 100%. It also gave a viability, T/C [4] of 92.4%, a viability, T/C [5] of 116% and a viability, T/C [6] of 59.5%. The viability, T/C [7] was 90.5%, the viability, T/C [8] was 101% and the viability, T/C [9] was 96.7%. It also gave a viability, T/C [10] of 87.9%, a viability, T/C [11] of 103% and a viability, T/C [12] of 50.1%. For the same compound, the viability, T/C [13] was 98.4%, the viability, T/C [14] was 102% and the viability, T/C [15] was 94.1%. The viability, T/C [16] was 102%, the viability, T/C [17] was 113% and the viability, T/C [18] was 48.1%. For the same compound, the viability, T/C [19] was 91.9%, the viability, T/C [20] was 108% and the viability, T/C [21] was 103%. The viability, T/C [22] was 108%, the viability, T/C [23] was 107% and the viability, T/C [24] was 54.2%. For the same compound, the viability, T/C [25] was 96%, the viability, T/C [26] was 101% and the viability, T/C [27] was 108%. It also gave a viability, T/C [28] of 101%, a viability, T/C [29] of 112% and a viability, T/C [30] of 45.5%. The viability, T/C [31] was 90.9%, the viability, T/C [32] was 103% and the viability, T/C [33] was 99.8%. The viability, T/C [34] was 105%, the viability, T/C [35] was 108% and the viability, T/C [36] was 50.5%.
`O=c1[nH]cc(F)c(=O)[nH]1` + CN(C)c1ccc(Nc2c3ccc(NC(=O)CCN4CCCC4)cc3nc3cc(NC(=O)CCN4CCCC4)ccc23)cc1 gave an IC50 (second compound 0.0316 µM) of over 10 µM, an IC50 (second compound 0.1 µM) of over 10 µM and an IC50 (second compound 0.316 µM) of over 10 µM. For the same compound, the IC50 (second compound 1 µM) was over 10 µM, the IC50 (second compound 3.16 µM) was over 10 µM and the IC50 (second compound 10 µM) was over 10 µM. For the same compound, the viability, T/C [1] was 101%, the viability, T/C [2] was 103% and the viability, T/C [3] was 86.6%. For the same compound, the viability, T/C [4] was 81.2%, the viability, T/C [5] was 75.7% and the viability, T/C [6] was 76%. For the same compound, the viability, T/C [7] was 115%, the viability, T/C [8] was 106% and the viability, T/C [9] was 89%. For the same compound, the viability, T/C [10] was 84.1%, the viability, T/C [11] was 77.2% and the viability, T/C [12] was 69.1%. It also gave a viability, T/C [13] of 98.2%, a viability, T/C [14] of 105% and a viability, T/C [15] of 85.9%. It also gave a viability, T/C [16] of 80.4%, a viability, T/C [17] of 75% and a viability, T/C [18] of 75.2%. The viability, T/C [19] was 97.2%, the viability, T/C [20] was 104% and the viability, T/C [21] was 89%. The viability, T/C [22] was 81.3%, the viability, T/C [23] was 74.6% and the viability, T/C [24] was 81.8%. For the same compound, the viability, T/C [25] was 88.8%, the viability, T/C [26] was 102% and the viability, T/C [27] was 85.5%. The viability, T/C [28] was 73.9%, the viability, T/C [29] was 73.3% and the viability, T/C [30] was 72.1%. For the same compound, the viability, T/C [31] was 96.4%, the viability, T/C [32] was 93.1% and the viability, T/C [33] was 81.5%. It also gave a viability, T/C [34] of 74.6%, a viability, T/C [35] of 70.2% and a viability, T/C [36] of 73.5%.
